Assay results: publication PMC9719519, “Non-classical ferroptosis inhibition by a small molecule targeting PHB2” (Nature Communications, 2022)

Key:
Test in all cases: biochemical
Parameters in all cases: Eurofins recombinant human kinase profiling, remaining kinase activity as % of control, 10 uM ATP
Details in all cases: ATP 10 uM; read-out: %Ctrl@10 μM
Abl(Y253F)(h) = molecular target: T1, Abl(Y253F)(h) (Homo sapiens, UniProt P00519, Y253F)
T1 construct: gene ABL1
From the text: (§1) To rapidly determine the biological target of YL-939, we first tested the activity of YL-939 against a panel of 401 recombinant human protein kinases by using the kinase profiling assay provided by Eurofins, since kinases are often the key components in various signal pathways[35],[36]. […] We then carried out affinity-based proteome profiling assay (ABPP) coupled with bioimaging to identify the biological target of YL-939 (Fig. 4A). To this end, we designed and synthesized a photoaffinity probe, YL-939-1 (Fig. 4A and Supplementary Fig. 5), which is YL-939 attached by a photo-crosslinker (L3) that contains a photo-reactive group diazirine and a clickable alkyne handle.

BTK(R28H)(h) = BTK(R28H)(h) (Homo sapiens, UniProt Q06187, R28H)
From the text: as §1

CDK5/p25(h) = molecular target: T2, CDK5/p25(h) (Homo sapiens, UniProt Q00535)
T2 construct: p25
From the text: as §1

CK1γ3(h) = molecular target: T3, CK1γ3(h) (Homo sapiens, UniProt Q9Y6M4)
T3 construct: gene CSNK1G3
From the text: as §1

CaMKIIα(h) = molecular target: T4, CaMKIIα(h) (Homo sapiens, UniProt Q9UQM7)
T4 construct: gene CAMK2A
From the text: as §1

EGFR(L858R)(h) = EGFR(L858R)(h) (Homo sapiens, UniProt P00533, L858R)
From the text: as §1

EGFR(T790M)(h) = EGFR(T790M)(h) (Homo sapiens, UniProt P00533, T790M)
Chain of EGFR(T790M)(h) (P00533 whole entry T790M): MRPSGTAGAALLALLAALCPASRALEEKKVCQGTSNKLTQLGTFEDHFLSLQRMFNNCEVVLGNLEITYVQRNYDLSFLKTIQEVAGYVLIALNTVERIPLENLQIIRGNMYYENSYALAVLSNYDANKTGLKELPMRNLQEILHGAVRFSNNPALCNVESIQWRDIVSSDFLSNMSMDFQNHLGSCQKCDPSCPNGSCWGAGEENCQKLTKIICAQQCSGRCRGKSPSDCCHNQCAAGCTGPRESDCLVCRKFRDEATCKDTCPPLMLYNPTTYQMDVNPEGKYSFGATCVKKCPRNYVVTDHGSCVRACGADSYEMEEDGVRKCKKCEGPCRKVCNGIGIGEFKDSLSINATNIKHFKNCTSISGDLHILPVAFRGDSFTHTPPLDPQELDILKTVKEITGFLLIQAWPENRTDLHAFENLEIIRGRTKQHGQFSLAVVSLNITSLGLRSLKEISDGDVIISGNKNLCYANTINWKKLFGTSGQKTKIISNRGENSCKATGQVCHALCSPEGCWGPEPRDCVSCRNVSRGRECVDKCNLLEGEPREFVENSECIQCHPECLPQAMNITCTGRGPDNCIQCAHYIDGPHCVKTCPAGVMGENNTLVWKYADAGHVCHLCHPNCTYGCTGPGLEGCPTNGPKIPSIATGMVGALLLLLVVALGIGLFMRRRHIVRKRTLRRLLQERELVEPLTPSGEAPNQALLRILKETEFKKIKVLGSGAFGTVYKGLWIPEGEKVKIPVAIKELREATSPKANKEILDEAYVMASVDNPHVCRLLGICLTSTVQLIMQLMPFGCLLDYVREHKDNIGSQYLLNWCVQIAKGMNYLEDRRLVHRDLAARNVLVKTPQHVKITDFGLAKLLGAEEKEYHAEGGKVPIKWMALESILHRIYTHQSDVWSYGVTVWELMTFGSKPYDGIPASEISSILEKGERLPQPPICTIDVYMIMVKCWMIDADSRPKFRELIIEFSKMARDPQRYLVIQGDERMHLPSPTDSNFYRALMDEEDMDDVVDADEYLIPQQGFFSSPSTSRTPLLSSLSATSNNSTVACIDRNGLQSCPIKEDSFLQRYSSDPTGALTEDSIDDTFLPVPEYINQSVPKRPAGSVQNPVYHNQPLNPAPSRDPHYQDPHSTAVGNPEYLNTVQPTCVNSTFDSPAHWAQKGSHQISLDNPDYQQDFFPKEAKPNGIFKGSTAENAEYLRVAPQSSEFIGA
From the text: as §1

EphB2(h) = EphB2(h) (Homo sapiens, UniProt P29323)
From the text: as §1

Fer(h) = Fer(h) (Homo sapiens, UniProt P16591)
Chain of Fer(h) (P16591 whole entry): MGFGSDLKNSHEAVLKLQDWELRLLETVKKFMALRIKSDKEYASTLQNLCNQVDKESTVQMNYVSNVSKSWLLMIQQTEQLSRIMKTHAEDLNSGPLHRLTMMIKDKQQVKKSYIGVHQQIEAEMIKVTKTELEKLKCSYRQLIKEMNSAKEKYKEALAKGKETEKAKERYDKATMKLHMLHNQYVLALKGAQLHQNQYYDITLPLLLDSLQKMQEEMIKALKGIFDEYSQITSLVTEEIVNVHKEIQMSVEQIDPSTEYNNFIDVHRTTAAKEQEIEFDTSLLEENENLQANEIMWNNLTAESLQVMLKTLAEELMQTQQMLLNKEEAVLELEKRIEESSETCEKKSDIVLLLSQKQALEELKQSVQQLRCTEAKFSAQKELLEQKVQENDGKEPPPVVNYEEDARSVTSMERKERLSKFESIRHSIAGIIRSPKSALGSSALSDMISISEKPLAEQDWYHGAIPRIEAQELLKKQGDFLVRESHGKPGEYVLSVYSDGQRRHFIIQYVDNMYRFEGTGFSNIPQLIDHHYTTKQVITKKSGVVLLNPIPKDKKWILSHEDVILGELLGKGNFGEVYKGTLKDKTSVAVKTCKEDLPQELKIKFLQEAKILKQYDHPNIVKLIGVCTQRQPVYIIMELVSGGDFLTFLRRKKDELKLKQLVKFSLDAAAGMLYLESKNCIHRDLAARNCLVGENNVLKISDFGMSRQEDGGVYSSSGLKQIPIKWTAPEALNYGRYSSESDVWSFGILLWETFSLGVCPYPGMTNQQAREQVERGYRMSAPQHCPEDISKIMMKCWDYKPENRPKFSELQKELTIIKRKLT
From the text: as §1

GSK3α(h) = molecular target: T5, GSK3α(h) (Homo sapiens, UniProt P49840)
T5 construct: gene GSK3A
From the text: as §1

HIPK2(h) = HIPK2(h) (Homo sapiens, UniProt Q9H2X6)
From the text: as §1

IGF-1R(h) = molecular target: T6, IGF-1R(h) (Homo sapiens, UniProt P08069)
T6 construct: gene IGF1R
T6 sequence (P08069 whole entry): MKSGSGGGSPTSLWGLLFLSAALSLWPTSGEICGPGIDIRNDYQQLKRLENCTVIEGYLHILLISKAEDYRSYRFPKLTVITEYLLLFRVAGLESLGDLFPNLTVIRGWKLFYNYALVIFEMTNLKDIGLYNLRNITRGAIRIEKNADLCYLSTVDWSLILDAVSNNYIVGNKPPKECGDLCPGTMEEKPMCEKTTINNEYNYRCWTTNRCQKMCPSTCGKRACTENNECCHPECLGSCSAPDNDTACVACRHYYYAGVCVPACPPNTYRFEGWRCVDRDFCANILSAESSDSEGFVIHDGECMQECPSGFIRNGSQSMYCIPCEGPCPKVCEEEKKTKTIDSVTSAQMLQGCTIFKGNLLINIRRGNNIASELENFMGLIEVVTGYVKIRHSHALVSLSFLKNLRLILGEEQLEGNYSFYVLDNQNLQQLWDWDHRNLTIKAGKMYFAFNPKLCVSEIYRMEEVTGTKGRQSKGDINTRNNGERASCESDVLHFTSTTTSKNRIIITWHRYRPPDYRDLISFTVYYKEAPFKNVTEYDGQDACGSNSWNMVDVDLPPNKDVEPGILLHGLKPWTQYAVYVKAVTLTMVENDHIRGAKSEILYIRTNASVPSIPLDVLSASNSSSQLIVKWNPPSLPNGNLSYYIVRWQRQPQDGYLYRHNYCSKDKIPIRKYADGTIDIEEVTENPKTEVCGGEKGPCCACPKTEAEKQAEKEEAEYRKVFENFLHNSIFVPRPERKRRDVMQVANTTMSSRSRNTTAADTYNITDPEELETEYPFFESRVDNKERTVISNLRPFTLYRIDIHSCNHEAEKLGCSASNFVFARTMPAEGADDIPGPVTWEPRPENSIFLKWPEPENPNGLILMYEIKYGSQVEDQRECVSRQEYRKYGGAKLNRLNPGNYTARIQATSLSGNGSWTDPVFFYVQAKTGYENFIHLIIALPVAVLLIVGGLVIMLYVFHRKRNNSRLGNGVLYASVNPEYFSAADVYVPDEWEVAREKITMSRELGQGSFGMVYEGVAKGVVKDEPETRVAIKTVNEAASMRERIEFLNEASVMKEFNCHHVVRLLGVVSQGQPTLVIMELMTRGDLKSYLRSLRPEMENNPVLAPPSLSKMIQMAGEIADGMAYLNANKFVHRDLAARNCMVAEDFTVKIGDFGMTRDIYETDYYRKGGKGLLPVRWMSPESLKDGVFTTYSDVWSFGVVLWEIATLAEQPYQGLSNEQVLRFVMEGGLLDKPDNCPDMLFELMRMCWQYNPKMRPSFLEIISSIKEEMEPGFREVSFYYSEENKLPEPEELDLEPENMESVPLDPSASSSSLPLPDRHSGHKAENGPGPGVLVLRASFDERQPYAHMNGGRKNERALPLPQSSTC
From the text: as §1

IR(h) = molecular target: T7, IR(h) (Homo sapiens, UniProt P06213)
T7 construct: gene INSR
From the text: as §1

IRAK1(h) = IRAK1(h) (Homo sapiens, UniProt P51617)
From the text: as §1

KDR(h) = KDR(h) (Homo sapiens, UniProt P35968)
From the text: as §1

MST2(h) = molecular target: T8, MST2(h) (Homo sapiens, UniProt Q13188)
T8 construct: gene STK3
From the text: as §1

NEK4(h) = NEK4(h) (Homo sapiens, UniProt P51957)
From the text: as §1

NUAK2(h) = NUAK2(h) (Homo sapiens, UniProt Q9H093)
From the text: as §1

PrKX(h) = PrKX(h) (Homo sapiens, UniProt P51817)
Chain of PrKX(h) (P51817 whole entry): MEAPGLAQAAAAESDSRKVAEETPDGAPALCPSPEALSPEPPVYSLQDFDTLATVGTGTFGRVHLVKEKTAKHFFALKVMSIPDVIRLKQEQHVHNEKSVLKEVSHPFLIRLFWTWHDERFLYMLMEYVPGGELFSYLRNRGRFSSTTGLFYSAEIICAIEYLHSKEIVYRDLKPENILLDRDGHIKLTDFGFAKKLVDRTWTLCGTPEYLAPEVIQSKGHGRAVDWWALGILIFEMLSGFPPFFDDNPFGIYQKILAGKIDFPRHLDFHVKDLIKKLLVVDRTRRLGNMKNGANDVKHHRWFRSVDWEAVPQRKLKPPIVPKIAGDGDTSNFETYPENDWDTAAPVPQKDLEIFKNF
From the text: as §1

TBK1(h) = TBK1(h) (Homo sapiens, UniProt Q9UHD2)
Chain of TBK1(h) (Q9UHD2 whole entry): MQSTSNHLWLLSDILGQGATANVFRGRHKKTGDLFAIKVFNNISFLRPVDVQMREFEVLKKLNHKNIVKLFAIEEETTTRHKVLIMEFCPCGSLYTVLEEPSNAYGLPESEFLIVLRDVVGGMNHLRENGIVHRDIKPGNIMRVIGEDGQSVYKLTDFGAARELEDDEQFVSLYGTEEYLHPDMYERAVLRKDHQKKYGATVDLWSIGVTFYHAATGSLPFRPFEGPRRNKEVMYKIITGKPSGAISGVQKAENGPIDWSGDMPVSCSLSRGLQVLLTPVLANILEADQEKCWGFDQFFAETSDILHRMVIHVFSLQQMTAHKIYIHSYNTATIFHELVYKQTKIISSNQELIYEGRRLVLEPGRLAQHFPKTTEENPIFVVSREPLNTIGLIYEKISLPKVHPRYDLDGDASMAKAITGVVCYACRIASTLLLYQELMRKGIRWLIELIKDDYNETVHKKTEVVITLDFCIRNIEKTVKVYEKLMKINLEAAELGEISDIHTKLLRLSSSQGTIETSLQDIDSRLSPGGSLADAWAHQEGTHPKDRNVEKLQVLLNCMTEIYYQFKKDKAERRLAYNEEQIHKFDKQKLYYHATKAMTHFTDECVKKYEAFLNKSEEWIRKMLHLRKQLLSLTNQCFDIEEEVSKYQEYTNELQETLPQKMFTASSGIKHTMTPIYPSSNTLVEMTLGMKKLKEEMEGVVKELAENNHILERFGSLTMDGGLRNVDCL
From the text: as §1

TTBK1(h) = TTBK1(h) (Homo sapiens, UniProt Q5TCY1)
From the text: as §1

cKit(V560G)(h) = molecular target: T9, cKit(V560G)(h) (Homo sapiens, UniProt P10721, V560G)
T9 construct: gene KIT
From the text: as §1

cSRC(h) = molecular target: T10, cSRC(h) (Homo sapiens, UniProt P12931)
T10 construct: gene SRC
T10 sequence (P12931 whole entry): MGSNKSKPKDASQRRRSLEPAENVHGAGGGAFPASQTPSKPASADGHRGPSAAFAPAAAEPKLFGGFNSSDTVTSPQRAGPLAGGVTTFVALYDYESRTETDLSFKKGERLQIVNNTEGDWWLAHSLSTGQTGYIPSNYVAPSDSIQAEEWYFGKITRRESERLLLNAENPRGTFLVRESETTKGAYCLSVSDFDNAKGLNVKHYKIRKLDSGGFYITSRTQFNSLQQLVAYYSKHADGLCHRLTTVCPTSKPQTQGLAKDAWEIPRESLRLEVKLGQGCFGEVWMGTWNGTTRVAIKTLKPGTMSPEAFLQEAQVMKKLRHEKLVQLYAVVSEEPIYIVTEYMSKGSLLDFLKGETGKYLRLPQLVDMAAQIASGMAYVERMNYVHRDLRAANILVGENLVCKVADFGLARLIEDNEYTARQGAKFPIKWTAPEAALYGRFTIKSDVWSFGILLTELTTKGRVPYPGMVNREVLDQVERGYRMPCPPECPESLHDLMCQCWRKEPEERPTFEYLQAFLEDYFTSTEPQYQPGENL
From the text: as §1

C1=C(c2nc(-c3cnn(C4CCNCC4)c3)cn3cc(-c4ccccc4)nc23)CCOC1 [YL-939]
remaining activity at 10 µM (Abl(Y253F)(h)): 123% | remaining activity at 10 µM (BTK(R28H)(h)): 107% | remaining activity at 10 µM (CDK5/p25(h)): 120% | remaining activity at 10 µM (CK1γ3(h)): 102% | remaining activity at 10 µM (CaMKIIα(h)): 64% | remaining activity at 10 µM (EGFR(L858R)(h)): 86% | remaining activity at 10 µM (EGFR(T790M)(h)): 138% | remaining activity at 10 µM (EphB2(h)): 81% | remaining activity at 10 µM (Fer(h)): 86% | remaining activity at 10 µM (GSK3α(h)): 119% | remaining activity at 10 µM (HIPK2(h)): 90% | remaining activity at 10 µM (IGF-1R(h)): 82% | remaining activity at 10 µM (IR(h)): 114% | remaining activity at 10 µM (IRAK1(h)): 118% | remaining activity at 10 µM (KDR(h)): 108% | remaining activity at 10 µM (MST2(h)): 78% | remaining activity at 10 µM (NEK4(h)): 118% | remaining activity at 10 µM (NUAK2(h)): 72% | remaining activity at 10 µM (PrKX(h)): 80% | remaining activity at 10 µM (TBK1(h)): 90% | remaining activity at 10 µM (TTBK1(h)): 103% | remaining activity at 10 µM (cKit(V560G)(h)): 88% | remaining activity at 10 µM (cSRC(h)): 78%
